From patent US6706740B2, “Fungicidal heterocyclic aromatic amides and their compositions, methods of use and preparation” (Dow AgroSciences LLC, priority 1999, dated 2004)
Where two headings read alike, the source gives them in different places.

Columns and labels:
[1] = test system: Magnaporthe grisea (Pyricularia oryzae—PYRIOR); test: microbe, parasite or virus in culture; type: cell-based; conditions: Pyricularia oryzae, read-out: PYRIOR in vitro Growth Inhibition
[2] = test system: Leptosphaeria nodorum—LEPTNO; test: Glume Blotch of Wheat, in vivo whole plant, 24 Hour Protectant; conditions: for pest or weed control at 100 ppm: Leptosphaeria, read-out: LEPTNO in vivo 1 Day Protectant
[3] = test system: Mycosphaerella graminicola (Septoria tritici—SEPTTR); test: In vitro fungal growth inhibition, Mycosphaerella graminicola (SEPTTR); type: cell-based; conditions: Zymoseptoria tritici, read-out: SEPTTR in vitro Growth Inhibition
[4] = test system: Phytophthora infestans (PHYTIN); test: microbe, parasite or virus in culture; type: cell-based; conditions: Phytophthora infestans, read-out: PHYTIN in vitro Growth Inhibition
[5] = test system: Rhizoctonia solani (RHIZSO); test: microbe, parasite or virus in culture; type: cell-based; conditions: Rhizoctonia solani, read-out: RHIZSO in vitro Growth Inhibition
Erysiphe graminis—ERYSGT = test: Powdery Mildew of Wheat, in vivo whole plant, 24 Hour Protectant; conditions: for pest or weed control at 100 ppm: Erysiphe, read-out: ERYSGT in vivo 1 Day Protectant
[6] = test system: Phytophthora infestans—PHYTIN; test: whole plant or invertebrate; type: in vivo; conditions: for pest or weed control at 100 ppm: Phytophthora, in Solanum lycopersicum, 24 h, read-out: PHYTIN in vivo 1 Day Protectant
[7] = test system: Puccinia recondita—PUCCRT; test: Brown Rust of Wheat, in vivo whole plant, 24 Hour Protectant; conditions: for pest or weed control at 100 ppm: Puccinia, read-out: PUCCRT in vivo 1 Day Protectant
[8] = test system: Stagonospora nodorum (Leptosphaeria nodorum—LEPTNO); test: In vitro fungal growth inhibition, Stagonospora nodorum (LEPTNO); type: cell-based; conditions: Leptosphaeria, read-out: LEPTNO in vitro Growth Inhibition
Septoria tritici—SEPTTR = test: Leaf Blotch of Wheat, in vivo whole plant, 24 Hour Protectant; conditions: for pest or weed control at 100 ppm: Zymoseptoria tritici, 24 h, read-out: SEPTTR in vivo 1 Day Protectant
Ustilago maydis (USTIMA) = test: microbe, parasite or virus in culture; type: cell-based; conditions: Mycosarcoma maydis, read-out: USTIMA in vitro Growth Inhibition
[9] = 100 ppm spray, 24 hour protectant, wheat, control of fungal infection vs untreated plants
[10] = 100 ppm spray, wheat, 24 hour protectant, % control of fungal infection vs untreated plants
[11] = wheat plants sprayed at 100 ppm, inoculated after 24 hours, control of fungal infection vs untreated plants
[12] = 100 ppm spray, wheat, 24 hour protectant, control of fungal infection vs untreated plants

Structure (SMILES) | melting point [°C] | inhibition at 25 ppm [1] [%] | inhibition at 25 ppm ([3]; 25 ppm in growth medium) [%] | inhibition at 25 ppm [4] [%] | inhibition at 25 ppm [5] [%] | pest or weed control at 100 ppm (Erysiphe graminis—ERYSGT; [9]) [%] | pest or weed control at 100 ppm [6] [%] | inhibition at 25 ppm ([8]; 25 ppm in growth medium) [%] | pest or weed control at 100 ppm (Septoria tritici—SEPTTR; [9]) [%] | inhibition at 25 ppm (Ustilago maydis (USTIMA)) [%] | other results
O=C(Nc1ccc(Oc2ccc(C(F)(F)F)cc2)cc1)c1ncccc1O [Compound 217] | 131 to 133 | < 80 | < 80 | < 80 | < 80 | 25 to 74 | < 25 | < 80 | < 25 | < 80 | pest or weed control at 100 ppm [2, 9]: < 25%; pest or weed control at 100 ppm [7, 9]: < 25%
COc1ccnc(C(=O)Nc2ccc(C(=O)Oc3cccc(C(F)(F)F)c3)cc2)c1OC(C)=O [Compound 715] | 166 to 169 | < 80 | < 80 | < 80 | < 80 |  | < 25 | < 80 |  | < 80 | pest or weed control at 100 ppm [2, 10]: 25 to 74%; pest or weed control at 100 ppm (Erysiphe graminis—ERYSGT; [10]): < 25%; pest or weed control at 100 ppm [7, 10]: 25 to 74%; pest or weed control at 100 ppm (Septoria tritici—SEPTTR; [10]): < 25%
O=C(Oc1cccnc1C(=O)NC1CCC(OC(=O)c2ccccc2)CC1)c1ccccc1 (stereo not drawn) [Compound 567] | 174 to 177 | < 80 |  | < 80 | < 80 |  |  |  |  | < 80 | pest or weed control at 100 ppm [2, 11]: 25 to 74%; inhibition at 25 ppm ([3]; 25 ppm in the growth medium): < 80%; pest or weed control at 100 ppm (Erysiphe graminis—ERYSGT; [11]): < 25%; PHYTIN in vivo 1 Day Protectant ([6]; tomato plants sprayed at 100 ppm, inoculated after 24 hours, control of fungal infection vs untreated plants): + +; pest or weed control at 100 ppm [7, 11]: < 25%; inhibition at 25 ppm ([8]; 25 ppm in the growth medium): < 80%; pest or weed control at 100 ppm (Septoria tritici—SEPTTR; [11]): 25 to 74%
COc1ccnc(C(=O)NC2CSCC(c3ccccc3)C2)c1O (stereo not drawn) [Compound 324] | 141 to 143 | < 80 | > 80 | > 80 | > 80 | 25 to 74 | < 25 | > 80 | 25 to 74 | > 80 | LEPTNO in vivo 1 Day Protectant [2, 9]: + +; pest or weed control at 100 ppm [7, 9]: 25 to 74%
O=C(Nc1cccc(Oc2ccccc2)c1)c1cccnc1O [Compound 521] | 200 to 201 | < 80 |  | < 80 | < 80 |  | 25 to 74 |  |  | < 80 | pest or weed control at 100 ppm [2, 11]: 25 to 74%; inhibition at 25 ppm ([3]; 25 ppm in the growth medium): < 80%; pest or weed control at 100 ppm (Erysiphe graminis—ERYSGT; [11]): < 25%; pest or weed control at 100 ppm [7, 11]: < 25%; inhibition at 25 ppm ([8]; 25 ppm in the growth medium): < 80%; pest or weed control at 100 ppm (Septoria tritici—SEPTTR; [11]): < 25%
Br.COc1ccnc(C(=O)NC2C[C@@H](Cc3ccccc3)O[C@@H](C)C2)c1O (stereo partly drawn) [Compound 311] | 156 to 158 | < 80 |  | < 80 | < 80 |  | < 25 |  |  | < 80 | pest or weed control at 100 ppm ([2]; 24 h): 25 to 74%; inhibition at 25 ppm [3]: < 80%; pest or weed control at 100 ppm (Erysiphe graminis—ERYSGT; 24 h): < 25%; pest or weed control at 100 ppm ([7]; 24 h): 25 to 74%; inhibition at 25 ppm [8]: < 80%; SEPTTR in vivo 1 Day Protectant (Septoria tritici—SEPTTR; in vivo): + +
CC1(C)CC(NC(=O)c2nscc2O)CC(C)(C)C1 [Compound 549] | 121 to 125 | < 80 |  | > 80 | < 80 |  | < 25 |  |  | < 80 | pest or weed control at 100 ppm [2, 11]: 25 to 74%; inhibition at 25 ppm ([3]; 25 ppm in the growth medium): > 80%; pest or weed control at 100 ppm (Erysiphe graminis—ERYSGT; [11]): < 25%; pest or weed control at 100 ppm [7, 11]: < 25%; inhibition at 25 ppm ([8]; 25 ppm in the growth medium): < 80%; pest or weed control at 100 ppm (Septoria tritici—SEPTTR; [11]): 25 to 74%
COCc1cc(Oc2ccc(C(F)(F)F)cc2)ccc1NC(=O)c1nccc(OC)c1O [Compound 426] | 125 to 127 | > 80 | > 80 | > 80 | > 80 |  | 25 to 74 | > 80 |  | > 80 | pest or weed control at 100 ppm [2, 12]: < 25%; pest or weed control at 100 ppm (Erysiphe graminis—ERYSGT; [12]): 25 to 74%; pest or weed control at 100 ppm [7, 12]: 25 to 74%; pest or weed control at 100 ppm (Septoria tritici—SEPTTR; [12]): 25 to 74%
COc1ccnc(C(=O)NC2CC(C)(C)CC(C)(C)C2)c1O [Compound 250] | 104 to 106 | < 80 | < 80 | > 80 | < 80 | < 25 | 25 to 74 | > 80 | < 25 | < 80 | pest or weed control at 100 ppm [2, 9]: 25 to 74%; pest or weed control at 100 ppm [7, 9]: 25 to 74%
COc1ccnc(C(=O)N[C@H]2CO[C@](C)(C(C)CC3=C(C)CCCC3(C)C)OC2)c1O (stereo partly drawn) [Compound 319] | 139 to 140 | < 80 | < 80 | < 80 | < 80 | 25 to 74 | < 25 | < 80 | 25 to 74 | < 80 | pest or weed control at 100 ppm [2, 9]: < 25%; PUCCRT in vivo 1 Day Protectant [7, 9]: + +
COc1ccnc(C(=O)Nc2ccc(NC(=O)c3cccc(C(F)(F)F)c3)cc2)c1OC(C)=O [Compound 719] | 124 to 126 | < 80 | < 80 | < 80 | < 80 |  | < 25 | < 80 |  | < 80 | pest or weed control at 100 ppm [2, 10]: 25 to 74%; pest or weed control at 100 ppm (Erysiphe graminis—ERYSGT; [10]): < 25%; pest or weed control at 100 ppm [7, 10]: < 25%; pest or weed control at 100 ppm (Septoria tritici—SEPTTR; [10]): < 25%
COc1ccnc(C(=O)N[C@H]2COC(=O)[C@H](Cc3ccccc3)[C@@H](OC(=O)C(C)C)[C@H](C)OC2=O)c1OC(=O)CC(C)(C)C [Compound 610] | 151 to 152 | < 80 | < 80 | < 80 | < 80 |  | < 25 | > 80 |  | < 80 | pest or weed control at 100 ppm [2, 10]: < 25%; pest or weed control at 100 ppm (Erysiphe graminis—ERYSGT; [10]): < 25%; pest or weed control at 100 ppm [7, 10]: 25 to 74%; pest or weed control at 100 ppm (Septoria tritici—SEPTTR; [10]): < 25%
CCC(=O)Oc1c(OC)ccnc1C(=O)N[C@H]1COC(=O)[C@H](Cc2ccccc2)[C@@H](OC(=O)C(C)C)[C@H](C)OC1=O [Compound 598] | 171 to 172 | < 80 | > 80 | < 80 | < 80 |  | < 25 | > 80 |  | < 80 | LEPTNO in vivo 1 Day Protectant [2, 10]: + +; ERYSGT in vivo 1 Day Protectant (Erysiphe graminis—ERYSGT; [10]): + +; PUCCRT in vivo 1 Day Protectant [7, 10]: + +; SEPTTR in vivo 1 Day Protectant (Septoria tritici—SEPTTR; [10]): + +
